Molecular target: Ba/F3 V617F cells (Homo sapiens, UniProt O60674, V617F, cells depend on it)
Experiment: Proliferation assay (Cell Titer-Glo, 72 h) utilizing Ba/F3 V617F cells
Assay type: cell-based, mouse
Conditions: Ba/F3 V617F cells, proliferation, level of activity given as class symbol, read-out: IC50 (the source's name)
Method in brief: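 Readout is CellTiter-Glo luminescence after 72 h at 37 °C, giving IC50. Cells: Ba/F3 V617F, 1×10^5 cells/mL in RPMI with 10% FBS, treated in duplicate with 3-fold dilution series made from 5 mM DMSO stock, 1:250 in 5% FBS medium, added at 2×.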

Sequence of Ba/F3 V617F cells (O60674 whole entry V617F): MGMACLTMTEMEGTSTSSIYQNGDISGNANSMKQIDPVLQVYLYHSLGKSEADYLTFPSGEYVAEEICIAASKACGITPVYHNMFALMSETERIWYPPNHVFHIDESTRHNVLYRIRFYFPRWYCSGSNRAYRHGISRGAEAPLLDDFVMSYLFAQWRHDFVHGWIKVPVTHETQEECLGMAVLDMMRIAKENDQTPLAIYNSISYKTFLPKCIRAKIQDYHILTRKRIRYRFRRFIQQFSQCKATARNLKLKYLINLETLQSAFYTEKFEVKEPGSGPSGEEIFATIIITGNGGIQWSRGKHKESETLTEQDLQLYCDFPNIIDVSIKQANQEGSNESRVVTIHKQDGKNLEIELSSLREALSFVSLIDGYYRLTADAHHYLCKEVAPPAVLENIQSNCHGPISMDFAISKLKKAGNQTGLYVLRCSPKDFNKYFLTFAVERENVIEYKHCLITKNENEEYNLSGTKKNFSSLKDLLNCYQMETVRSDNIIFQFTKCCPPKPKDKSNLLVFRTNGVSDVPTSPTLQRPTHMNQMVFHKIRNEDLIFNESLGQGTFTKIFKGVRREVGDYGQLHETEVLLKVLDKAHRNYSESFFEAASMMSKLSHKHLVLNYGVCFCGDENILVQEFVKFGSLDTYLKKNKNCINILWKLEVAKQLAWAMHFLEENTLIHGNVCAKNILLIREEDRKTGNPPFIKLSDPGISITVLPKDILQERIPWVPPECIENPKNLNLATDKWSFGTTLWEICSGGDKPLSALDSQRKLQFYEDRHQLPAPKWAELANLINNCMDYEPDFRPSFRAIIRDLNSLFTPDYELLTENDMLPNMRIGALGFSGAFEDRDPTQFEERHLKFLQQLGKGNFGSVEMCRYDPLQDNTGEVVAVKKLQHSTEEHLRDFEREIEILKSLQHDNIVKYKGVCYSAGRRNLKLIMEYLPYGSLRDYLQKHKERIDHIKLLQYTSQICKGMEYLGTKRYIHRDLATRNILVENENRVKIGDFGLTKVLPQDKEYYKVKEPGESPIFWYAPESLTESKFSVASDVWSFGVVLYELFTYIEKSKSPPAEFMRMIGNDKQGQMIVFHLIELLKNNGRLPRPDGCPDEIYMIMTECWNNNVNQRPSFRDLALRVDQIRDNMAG

GI50, < 1000 nM:
Cc1cc(Nc2nccc(-c3ccc(N4CCOCC4)nc3)n2)ccc1N1CCN2CC[C@@H]1C2 [compound 276, 4-(6-(morpholin-4-yl)pyridin-3-yl)-N-(3-methyl-4-((R)-1,4-diazabicyclo[3.2.1]octan-4-yl)phenyl)pyrimidin-2-amine]
COCCN(C)c1ccc(-c2ccnc(Nc3ccc(N4CC5(C)CN(C)CC(C)(C4)C5)c(C)c3)n2)cn1 [compound 221, 4-(6-(2-methoxyethyl)(methyl)aminopyridin-3-yl)-N-(3-methyl-4-(1,5,7-trimethyl-3,7-diazabicyclo[3.3.1]nonan-3-yl)phenyl)pyrimidin-2-amine]
Cc1cc(Nc2nccc(-c3ccc(NCCC(C)C)nc3)n2)ccc1N1C[C@@H]2C[C@H]1CN2C [compound 217, 4-(6-(3-methylbutyl)aminopyridin-3-yl)-N-(3-methyl-4-((1S,4S)-5-methyl-2,5-diazabicyclo[2.2.1]heptan-2-yl)phenyl)pyrimidin-2-amine]
CCOCCCNc1ccc(-c2ccnc(Nc3ccc(N4C[C@@H]5C[C@H]4CO5)c(C)c3)n2)cn1 [compound 200, 4-(6-(3-ethoxypropyl)aminopyridin-3-yl)-N-(3-methyl-4-((1S,4S)-5-oxa-2-azabicyclo[2.2.1]heptan-2-yl)phenyl)pyrimidin-2-amine]
CS(=O)(=O)N1C[C@@H]2C[C@H]1CN2c1ccc(Nc2nccc(-c3ccc(N4CCOCC4)nc3)n2)cc1Cl [compound 257, 4-(6-(morpholin-4-yl)pyridin-3-yl)-N-(3-chloro-4-((1S,4S)-5-(methylsulfonyl)-2,5-diazabicyclo[2.2.1]heptan-2-yl)phenyl)pyrimidin-2-amine]
Cc1cc(Nc2nccc(-c3ccc(OC4CCOCC4)nc3)n2)ccc1N1CCN2CCC1C2 (stereo not shown) [compound 275, 4-(6-(tetrahydropyran-4-yloxy)pyridin-3-yl)-N-(3-methyl-4-(1,4-diazabicyclo[3.2.1]octan-4-yl)phenyl)pyrimidin-2-amine]
Cc1cc(Nc2nccc(-c3cnc4c(c3)CN3CCCC3C(=O)N4)n2)ccc1N1C[C@@H]2C[C@H]1CN2C (stereo partly drawn) [compound 270, 4-(7,8,9,9a-tetrahydro-5H-pyrido[2,3-e]pyrrolo[1,2-a][1,4]diazepin-10(11H)-on-3-yl)-N-(3-methyl-4-((1S,4S)-5-methyl-2,5-diazabicyclo[2.2.1]heptan-2-yl)phenyl)pyrimidin-2-amine]

Same assay, conditions: Ba/F3 V617F cells, proliferation, level of activity to inhibit JAK2, read-out: IC50 (the source's name)

GI50, < 1000 nM:
Cc1cc(Nc2nccc(-c3ccc(NC(=O)CN(C)C)nc3)n2)ccc1N1C[C@@H]2C[C@H]1CN2C [compound 152, 4-(6-(2-(dimethylamino)acetamido)-pyridin-3-yl)-N-(3-methyl-4-((1S,4S)-5-methyl-2,5-diazabicyclo[2.2.1]heptan-2-yl)phenyl)pyrimidin-2-amine]
CCN(CC)c1nc(-c2ccnc(Nc3ccc(N4C[C@@H]5C[C@H]4CN5C)c(C)c3)n2)cs1 [compound 163, 4-(2-(diethylamino)thiazol-4-yl)-N-(3-methyl-4-((1S,4S)-5-methyl-2,5-diazabicyclo[2.2.1]heptan-2-yl)phenyl)pyrimidin-2-amine]
CCOc1ccc(-c2ccnc(Nc3ccc(N4C[C@@H]5C[C@H]4CN5C)c(C)c3)n2)cn1 [compound 173, 4-(6-ethoxypyridin-3-yl)-N-(3-methyl-4-((1S,4S)-5-methyl-2,5-diazabicyclo[2.2.1]heptan-2-yl)phenyl)pyrimidin-2-amine]
Cc1cc(Nc2nccc(-c3cnc4c(c3)OCCN4)n2)ccc1N1CC2(C)CN(C)CC(C)(C1)C2 [compound 88, 4-(3,4-dihydro-2H-pyrido[3,2-b][1,4]oxazin-7-yl)-N-(3-methyl-4-(1,5,7-trimethyl-3,7-diazabicyclo[3.3.1]nonan-3-yl)phenyl)pyrimidin-2-amine]
Cc1cc(Nc2nccc(-c3ccc(C(=O)Nc4ccccn4)cc3)n2)ccc1N1C[C@@H]2C[C@H]1CN2C [compound 134, 4-(4-((pyridin-2-yl)aminocarbonyl)phenyl)-N-(3-methyl-4-((1S,4S)-5-methyl-2,5-diazabicyclo[2.2.1]heptan-2-yl)phenyl)pyrimidin-2-amine]
Cc1cc(Nc2nccc(-c3ccc(NC(=O)CN4CCOCC4)nc3)n2)ccc1N1C[C@@H]2C[C@H]1CN2C [compound 141, 4-(6-(2-(morpholin-4-yl)acetamido)pyridin-3-yl)-N-(3-methyl-4-((1S,4S)-5-methyl-2,5-diazabicyclo[2.2.1]heptan-2-yl)phenyl)pyrimidin-2-amine]
CC(=O)N1CCN(c2ccc(-c3ccnc(Nc4ccc(N5C[C@@H]6C[C@H]5CN6C)c(F)c4)n3)cn2)CC1 [compound 16, 4-(6-(4-acetylpiperazin-1-yl)pyridin-3-yl)-N-(3-fluoro-4-((1S,4S)-5-methyl-2,5-diazabicyclo[2.2.1]heptan-2-yl)phenyl)pyrimidin-2-amine]
Cc1cc(Nc2nccc(-c3ccc4ncn(C)c4c3)n2)ccc1N1CCN2CCC1C2 (stereo not shown) [compound 122, (1-methylbenzimidazol-6-yl)-N-(3-methyl-4-(1,4-diazabicyclo[3.2.1]octan-4-yl)phenyl)pyrimidin-2-amine]
Cc1cc(Nc2nccc(-c3cnc4c(c3)OC(C)(C)C(=O)N4)n2)ccc1N1C[C@@H]2C[C@H]1CO2 [compound 27, 4-(2,2-dimethyl-3-oxo-3,4-dihydro-2H-pyrido[3,2-b][1,4]oxazin-7-yl)-N-(3-methyl-4-((1S,4S)-5-oxa-2-azabicyclo[2.2.1]heptan-2-yl)phenyl)pyrimidin-2-amine]

GI50, 1000 to 10000 nM:
CC1CCCN(c2cnc(-c3ccnc(Nc4ccc(N5C[C@@H]6C[C@H]5CN6C)c(F)c4)n3)cn2)C1 (stereo partly drawn) [compound 127, 4-(5-(3-methylpiperidin-1-yl)pyrazin-2-yl)-N-(3-fluoro-4-((1S,4S)-5-methyl-2,5-diazabicyclo[2.2.1]heptan-2-yl)phenyl)pyrimidin-2-amine]
Cc1cc(Nc2nccc(-c3ccc(NS(C)(=O)=O)nc3)n2)ccc1N1C[C@@H]2C[C@H]1CN2C [compound 151, 4-(6-(methylsulfonylamino)pyridin-3-yl)-N-(3-methyl-4-((1S,4S)-5-methyl-2,5-diazabicyclo[2.2.1]heptan-2-yl)phenyl)pyrimidin-2-amine]
Cc1cc(Nc2nccc(-c3ccc(C#N)nc3)n2)ccc1N1C2CCC1CC2 [compound 112, 4-(6-cyanopyridin-3-yl)-N-(3-methyl-4-(7-azabicyclo[2.2.1]heptan-7-yl)phenyl)pyrimidin-2-amine]
Cc1cc(Nc2nccc(-c3cnc(N4CCOCC4)nc3)n2)ccc1N1C[C@@H]2C[C@H]1CO2 [compound 42, 4-(2-(morpholin-4-yl)pyrimidin-5-yl)-N-(3-methyl-4-((1S,4S)-5-oxa-2-azabicyclo[2.2.1]heptan-2-yl)phenyl)pyrimidin-2-amine]

Same assay, conditions: inhibition of JAK2 activity, proliferation of Ba/F3 V617F cells, read-out: IC50 (the source's name)

GI50, 1000 to 10000 nM:
Cc1cc(Nc2nccc(-c3ccc(N(C)C)cc3)n2)cnc1N1C[C@@H]2C[C@H]1CN2C [compound 62]
CC(=O)N1CCN(c2ccc(-c3ccnc(Nc4ccc(N5C[C@@H]6C[C@H]5CN6C)nc4)n3)cn2)CC1 [compound 57, 4-(6-(4-acetylpiperazin-1-yl)pyridin-3-yl)-N-(6-((1S,4S)-5-methyl-2,5-diazabicyclo[2.2.1]heptan-2-yl)pyridin-3-yl)pyrimidin-2-amine]

— patent publication US9624229B2, “Pyrimidine-2-amine compounds and their use as inhibitors of JAK kinases” (Rigel Pharmaceuticals, Inc., priority 2008, dated 2017)
